“Also recorded” adds a separate entry of the source. Where two headings read alike, the source gives them in different places.
How the values were obtained:
[1] = system: primary SK cells; assay: Screening for inducers of cell death in primary SK cells (SRB assay); type: cell-based, human; conditions: for SK cell death inducer activity / viability of SK cells in the screen: 500 nM; for SK cell death inducer activity / viability of SK cells in the screen / cell death in SK cells (follow-up): 24 hrs post treatment, SRB assay
Experimental: (§1) FIG. 2A, FIG. 2B, and FIG. 2C show data relating to the screening for small molecule inducers of cell death in primary SK cells. (FIG. 2A) 20 small molecule inhibitors (500 nM) of kinases within the MAPK-Raf and PIK3/Akt pathway were used to treat primary SK cells (in 12 well plates) harboring either FGFR3 or/and PIK3CA mutations or none. Cell death was detected 24 hrs post treatment using SRB assay. (FIG. 2B) Representative images of cells after compound treatment. (FIG. 2C) Same molecules were used on normal human keratinocytes in two different concentrations.
(§2) (FIG. 4A) SK cells were treated with two different Akt inhibitors and cell death was measured 24 hrs post treatment using SRB assay. (FIG. 4B) Akt inhibitors were profiled against the human kinome and shared targets were identified. (FIG. 4C) Cell death in SK cells after PKC inhibition. (FIG. 4D) cell death was measured in SK cells 72 hrs after transfection with control RNAi or RNAi for Akt1 and/or 2.
Due to the fragility of the primary cultures, RNAi transfection in a high throughput fashion turned out to be challenging, which prompted the use of a collection of specific small molecule kinase inhibitors to determine which kinase is essential for survival of SK cells but not of normal human keratinocytes. This level of selectivity was introduced in order to specifically target dependency caused by genomic alterations (both mutations and overexpression).
As recently reported this hyperphosphorylation is due to the docking of the compound in the ATP binding site, which prevents the Akt interaction with its downstream targets^27. As shown in FIG. 5B SK cells treated with C8 indeed have a hyperphosphorylated Akt, but importantly the Akt downstream signaling was shut down (FIG. 5C).
(§3) Small molecule kinase inhibitors usually have a high degree of specificity towards kinases in general but often these inhibitory effects are shared among several kinases, although in different doses. While this is in most of the cases considered a weakness of the approach, it can also give some evidence about other possible targets involved in the process of interest. Therefore, the inventors profiled the two effective compounds for their targets (in collaboration with Dr. N. Gray, DFCI) and determined if any other kinases might be involved in the survival of SK cells. […] In addition, the inventors were able to confirm this by down-modulation of Akt family members using an RNAi approach.

[2] = system: normal human keratinocytes; assay: Cell death in normal human keratinocytes (SRB assay); type: cell-based; conditions: C8 dose-response, 24 hrs, SRB stained
Experimental: as §1
FIG. 3A, FIG. 3B, and FIG. 3C show data relating to small molecule-mediated inhibition of Akt signaling in primary SK cells. (FIG. 3A) SK and normal keratinocytes were treated with C8 for 24 hrs and SRB stained. (FIG. 3B) and (FIG. 3C). SK cells were treated with C8 for 4 hrs and subjected to Western blotting for corresponding proteins.
Due to the fragility of the primary cultures, RNAi transfection in a high throughput fashion turned out to be challenging, which prompted the use of a collection of specific small molecule kinase inhibitors to determine which kinase is essential for survival of SK cells but not of normal human keratinocytes. This level of selectivity was introduced in order to specifically target dependency caused by genomic alterations (both mutations and overexpression). […]

[3] = system: Akt; assay: Western blotting of Akt signaling in SK cells; type: cell-based, human
Experimental: (FIG. 3A) SK and normal keratinocytes were treated with C8 for 24 hrs and SRB stained. (FIG. 3B) and (FIG. 3C). SK cells were treated with C8 for 4 hrs and subjected to Western blotting for corresponding proteins.

[4] = system: human kinome; assay: Profiling of Akt inhibitors against the human kinome; type: biochemical
Experimental: as §2, §3

[5] = system: Human SK explants; assay: Topical treatment of ex vivo human SK explants; type: cell-based
Experimental: It is now widely accepted that growth, differentiation and death of keratinocytes in culture differs in significant aspects from that in intact skin. Therefore, in order to closely reproduce the in vivo situation for SK tumors, the inventors utilized an ex vivo explant system^16 for culturing freshly excised SK lesions for up to 7 days. SK explants were treated by topical application of 1 mM of C8 for 48 hrs and stained for activated Caspase 3 to detect cell death.

[6] = system: SK cells; assay: Apoptosis in SK cells (cleaved PARP Western blotting, TUNEL staining); type: cell-based, human
Experimental: (§4) (FIG. 6A) SK cells were treated with the Akt inhibitor either for 24 hrs to measure levels of cleaved PARP by Western blotting or (FIG. 6B) for 48 hrs to detect TUNEL staining. (FIG. 6C) 24 hrs post treatment pro-apoptotic Akt targets were analyzed by WB.
It is well-established that activation of Akt in cells is known to elicit pro-survival effects through activation/suppression of different targeted pathways.

[7] = system: pro-apoptotic Akt targets (FoxO1/3, MDM2, p53); assay: Western blot of pro-apoptotic Akt targets in SK cells; type: cell-based, human; conditions: 24 hrs post treatment, WB
Experimental: as §4
Therefore, it was investigated if any of the prominent pro-apoptotic targets of Akt were involved in this process. A decrease of phosphorylated levels of FoxO1/3 as well as of phosphorylated MDM2 was observed, which correlated with increased p53 levels upon treatment with the Akt inhibitor […].

[8] = SK cells treated 4 hrs, Western blotting

## Cc1n[nH]c2ccc(-c3cncc(OC[C@@H](N)Cc4c[nH]c5ccccc45)c3)cc12 [C8]
[1]
  SK cell death inducer activity / viability of SK cells in the screen: very strong activity
  cell death in SK cells (follow-up): dose-response killing effect
[2]
  effect on normal keratinocytes: remained unaffected even at higher doses
[3]; [8]
  Akt downstream signaling: shut down
  phosphorylation status of Akt at T308 and 5473: paradoxical hyperphosphorylation
[4]
  shared targets in kinase profiling: only members of the Akt and PKC family were shared targets
[5]; topical application of 1 mM for 48 hrs
  cell death in SK explants (activated Caspase 3): significant cell death; also recorded: induction of cell death
[5]; topically treated with 1 mM for 48 hrs
  tissue destruction in SK explants (H&E staining): tissue destruction
[6]; 24 hrs (cleaved PARP), 48 hrs (TUNEL)
  apoptosis as detected by cleaved PARP levels and TUNEL staining: induction of apoptosis
[6]; SK cells, 48 hrs
  TUNEL staining: positive
[7]
  p53 levels: increased
  phosphorylated MDM2: decrease
  phosphorylated levels of FoxO1/3: decrease

## Clc1ccc(C2(c3ccc(-c4cn[nH]c4)cc3)CCNCC2)cc1 [C9]
[1]
  SK cell death inducer activity / viability of SK cells in the screen: did not affect the viability
  cell death in SK cells (follow-up): did not show any effects

## CCn1c(-c2nonc2N)nc2c(C#CC(C)(C)O)ncc(OC[C@H]3CCCNC3)c21 [GSK690693]
[4]
  shared targets in kinase profiling: only members of the Akt and PKC family were shared targets

## COc1ccc(C2=N[C@@H](c3ccc(Cl)cc3)[C@@H](c3ccc(Cl)cc3)N2C(=O)N2CCNC(=O)C2)c(OC(C)C)c1 [Nutlin-3]
[1]
  cell death in SK cells: induces cells death

## Cc1c2ccncc2c(C)c2c1[nH]c1ccccc12 [elipticine, ellipticine]
[1]; within 48 hours
  cell death in SK cells: induce cell death
[3]
  Akt signaling in SK cells: block Akt signaling

## O=c1c(O)c(-c2ccc(O)cc2)oc2cc(O)cc(O)c12 [kaempferol]
[1]; within 48 hours
  cell death in SK cells: induce cell death
[3]
  Akt signaling in SK cells: block Akt signaling

## COc1ccc(C[C@H](N)C(=O)N[C@H]2[C@@H](O)[C@H](n3cnc4c(N(C)C)ncnc43)O[C@@H]2CO)cc1 [pyromycin, puromycin]
[1]
  cell death in SK cells: inducer of cell death
